Experimental data: the OligoGym collection
“And” between values parts separate entries of the source, which are not always exact repeats. Equal entries are not always repeated. After the bases stand the sugars from the 5' end (letter, count) and the backbone: PS all phosphorothioate, else s phosphorothioate and o phosphodiester by linkage. Methylation of C is not given here. e = 2'-O-(2-methoxyethyl) (MOE); l = locked nucleic acid (LNA); k = constrained ethyl (cEt); d = 2'-deoxy (DNA)

Key:
MYH7 = details: ASO, CC-2580, 5 µM
ANGPTL2 = details: ASO
KRAS = details: ASO, A431, 2 µM

Row | Sequence | target mRNA inhibition (MYH7) | target mRNA inhibition (ANGPTL2; 5 µM) [%] | target mRNA inhibition (ANGPTL2; 25 µM) [%] | target mRNA inhibition (KRAS)
1 | AAAGGATGTAAGATGCA (sugars l4 d9 l4, PS) | 88% and 89% |  |  | 
2 | AAGAAGTTAACAGAGCCATC (sugars l1 d15 l4, PS) |  | 42.1 | 45.8 | 
3 | AAGAGAGAAGGCAGTGAGAG (sugars l2 d16 l2, PS) |  | 24.8 | 10.9 | 
4 | AAGTTGATAGTTTATCTC (sugars l4 d11 l3, PS) |  | 91.6 | 91.4 | 
5 | ACCCTCCATCCTTCACC (sugars l2 d13 l2, PS) |  | 34.7 | 54.5 | 
6 | ACCCTCCATCCTTCACC (sugars l3 d12 l2, PS) |  | 38.9 | 44 | 
7 | ACCCTCCATCCTTCACC (sugars l4 d11 l2, PS) |  | 36.5 | 52.7 | 
8 | AGTAGCCTTCTGACCAA (sugars l1 d13 l3, PS) |  | 48.5 | 56.5 | 
9 | AGTTGATAGTTTATCTCCT (sugars l2 d15 l2, PS) |  | 59.7 | 67.4 | 
10 | ATAGTGGGCAGAGGGGG (sugars l1 d14 l2, PS) |  | 21.6 | 13.4 | 
11 | ATCAATAGGCAGACAGGC (sugars l2 d14 l2, PS) |  | 50.1 | 65.4 | 
12 | ATGGTGGTTATTCTTTGTGA (sugars l1 d17 l2, PS) |  | 33 | 35.7 | 
13 | ATTGTGGGTTGGAGGGC (sugars l1 d14 l2, PS) |  | 30.3 | 18.7 | 
14 | ATTTTGAGATTCCCCCAAA (sugars l1 d14 l4, PS) |  | 7.37 | -8.2 | 
15 | CAAAGGCATTTCAGTTCC (sugars l1 d14 l3, PS) |  | 56.8 | 70.4 | 
16 | CAGCCAGTAAATGTTCTCCA (sugars l1 d17 l2, PS) |  | 42.8 | 38 | 
17 | CAGCTTGGCGATGATCT (sugars dlddlddddddlddlll, PS) | 50% and 32% |  |  | 
18 | CAGCTTGGCGATGATCT (sugars l2 d8 l1 d2 l4, PS) | 37% and 35% |  |  | 
19 | CAGCTTGGCGATGATCT (sugars l2 d8 l1 d3 l3, PS) | 48% and 29% |  |  | 
20 | CAGCTTGGCGATGATCT (sugars l2 d9 l1 d2 l3, PS) | 59% and 54% |  |  | 
21 | CAGCTTGGCGATGATCT (sugars l2 d11 l1 d1 l2, PS) | 66% and 46% |  |  | 
22 | CAGCTTGGCGATGATCT (sugars l3 d9 l1 d2 l2, PS) | 64% and 46% |  |  | 

Row | Sequence | target mRNA inhibition (MYH7) | target mRNA inhibition (ANGPTL2; 5 µM) [%] | target mRNA inhibition (ANGPTL2; 25 µM) [%] | target mRNA inhibition (KRAS)
23 | CAGCTTGGCGATGATCT (sugars lddldddddddldldll, PS) | 14% and 8% |  |  | 
24 | CAGCTTGGCGATGATCT (sugars lddlddddddldldlll, PS) | 20% and 19% |  |  | 
25 | CAGCTTGGCGATGATCT (sugars lddlddddddlldddll, PS) | -44% and -36% |  |  | 
26 | CAGCTTGGCGATGATCT (sugars lddldddllddddddll, PS) | 23% and 16% |  |  | 
27 | CAGCTTGGCGATGATCT (sugars lddldldddldddddll, PS) | 12% and -4% |  |  | 
28 | CAGCTTGGCGATGATCT (sugars lddlldddddlddddll, PS) | 31% and 7% |  |  | 
29 | CAGCTTGGCGATGATCT (sugars ldldddddddldlddll, PS) | 9% and -10% |  |  | 
30 | CAGCTTGGCGATGATCT (sugars ldldddddddlldldll, PS) | 38% and 34% |  |  | 
31 | CAGCTTGGCGATGATCT (sugars ldldlldlddddddlll, PS) | 30% and 32% |  |  | 
32 | CAGCTTGGCGATGATCT (sugars ldllddlddldddddll, PS) | 28% and 5% |  |  | 
33 | CAGCTTGGCGATGATCT (sugars llddddddddlldldll, PS) | 14% and 18% |  |  | 
34 | CAGCTTGGCGATGATCT (sugars lldddddddldddldll, PS) | 5% and -8% |  |  | 
35 | CAGCTTGGCGATGATCT (sugars llddlddlddddddlll, PS) | 9% and -16% |  |  | 
36 | CAGCTTGGCGATGATCT (sugars lldlldddddlddddll, PS) | 34% and 16% |  |  | 
37 | CAGGCCAACACTAACTC (sugars l1 d12 l4, PS) |  | 66.9 | 82.5 | 
38 | CAGGTCCTTGTACTTGC (sugars l2 d13 l2, PS) |  | 49.2 | 62 | 
39 | CATTTTGAGATTCCCCCA (sugars l1 d15 l2, PS) |  | 22.1 | 21.1 | 
40 | CCAACACTAACTCGGC (sugars l2 d12 l2, PS) |  | 36 | 54.3 | 
41 | CCACCCATTTAGCCTTC (sugars l1 d14 l2, PS) |  | 46.7 | 42.7 | 
42 | CCAGAGCTAATCAGTGG (sugars l2 d13 l2, PS) |  | 39.4 | 48.8 | 
43 | CCATTTTGAGATTCCCCCAA (sugars l3 d15 l2, PS) |  | 44.4 | 43.9 | 
44 | CCCACAATGAGACTGGT (sugars l2 d13 l2, PS) |  | 30.2 | 30.4 | 

Row | Sequence | target mRNA inhibition (MYH7) | target mRNA inhibition (ANGPTL2; 5 µM) [%] | target mRNA inhibition (ANGPTL2; 25 µM) [%] | target mRNA inhibition (KRAS)
45 | CTAGACATACCATCTA (sugars l3 d10 l3, PS) |  | 34.9 | 40 | 
46 | CTAGTGTGCTCTGGAGC (sugars l1 d14 l2, PS) |  | 36.6 | 65.7 | 
47 | CTCCAAATTAAATCCG (sugars l4 d9 l3, PS) |  | 22.4 | 32.3 | 
48 | CTGGAAAGAAGGGGCTGTG (sugars l1 d16 l2, PS) |  | 38.8 | 30.4 | 
49 | CTGGGTTATATTCTCTT (sugars l2 d12 l3, PS) |  | 39.4 | 43.5 | 
50 | CTGGTTGATGATGCGGTT (sugars l1 d15 l2, PS) |  | 56 | 66 | 
51 | CTTGGCAATGATCTCATCC (sugars l1 d11 l1 d2 l4, PS) | 54% and 33% |  |  | 
52 | CTTGGCAATGATCTCATCC (sugars l3 d10 l1 d2 l3, PS) | 80% and 64% |  |  | 
53 | CTTGGCAATGATCTCATCC (sugars l3 d11 l1 d1 l3, PS) | 85% and 74% |  |  | 
54 | CTTGGCAATGATCTCATCC (sugars ldddddddldddlddldll, PS) | 50% and 34% |  |  | 
55 | CTTGGCAATGATCTCATCC (sugars ldddddddlddlddlddll, PS) | 44% and 27% |  |  | 
56 | CTTGGCAATGATCTCATCC (sugars ldddddddldlddldldll, PS) | 22% and 4% |  |  | 
57 | CTTGGCAATGATCTCATCC (sugars lddddddllddlddlddll, PS) | 26% and 5% |  |  | 
58 | CTTGGCAATGATCTCATCC (sugars ldddldddddldlddddll, PS) | 12% and 1% |  |  | 
59 | CTTGGCAATGATCTCATCC (sugars lddldddddddlddlddll, PS) | 60% and 37% |  |  | 
60 | GAAGAAAAGAGCACATGG (sugars l3 d11 l4, PS) |  | 33.2 | 9.98 | 
61 | GCCAACACTAACTCGGC (sugars l1 d14 l2, PS) |  | 30.6 | 31.4 | 
62 | GCTCCGGTAATGGCCC (sugars l1 d12 l3, PS) |  | 25.9 | 29.2 | 
63 | GCTCTCATAATCCTAC (sugars l2 d11 l3, PS) |  | 59.2 | 65.4 | 
64 | GTCATAGAAACTACCCC (sugars l1 d13 l3, PS) |  | 29.1 | 68.1 | 
65 | GTGGGCAAGAGGGATGC (sugars l1 d14 l2, PS) |  | 35 | 32.2 | 
66 | GTTATGCCCATTTCTAGG (sugars l1 d15 l2, PS) |  | 47.7 | 58.8 | 

Row | Sequence | target mRNA inhibition (MYH7) | target mRNA inhibition (ANGPTL2; 5 µM) [%] | target mRNA inhibition (ANGPTL2; 25 µM) [%] | target mRNA inhibition (KRAS)
67 | GTTCGTCAGCCAGTAA (sugars l2 d11 l3, PS) |  | 46.5 | 75.5 | 
68 | GTTGATAGTTTATCTCC (sugars l3 d12 l2, PS) |  | 87.4 | 88.8 | 
69 | GTTGATAGTTTATCTCCT (sugars l1 d14 l3, PS) |  | 64.1 | 76.7 | 
70 | GTTGATGATGCGGTTGTAG (sugars l1 d16 l2, PS) |  | 22.9 | 34 | 
71 | TAATAGGCACACACCCAGAC (sugars l1 d17 l2, PS) |  | 27.2 | 43.3 | 
72 | TAATGGCTGAGATGCAG (sugars l4 d11 l2, PS) |  | 36 | 52.6 | 
73 | TAATTCACCGCCAAATTAC (sugars l3 d13 l3, PS) |  | 27.6 | 36.8 | 
74 | TCCGGTAATGGCCCC (sugars l1 d12 l2, PS) |  | 34 | 51.8 | 
75 | TGTTTGGAAATGTTATCT (sugars l3 d11 l4, PS) |  | 80.9 | 87.1 | 
76 | TTAATTACTTATGCAG (sugars k3 d10 k3, PS) |  |  |  | 32%
77 | TTACTTATGCAGAGAA (sugars k3 d10 k3, PS) |  |  |  | 46%
78 | TTAGTGATTAGGTCAA (sugars k3 d9 k3 e1, PS) |  |  |  | 53%
79 | TTAGTGGAAGGTGTTGG (sugars l3 d12 l2, PS) |  | 51.1 | 62.8 | 
80 | TTATGCAATGTTAATT (sugars k3 d10 k3, PS) |  |  |  | 3%
81 | TTATGCACTCGGTTCTCC (sugars l1 d15 l2, PS) |  | 30.6 | 46.6 | 
82 | TTGATGATGCGGTTGTA (sugars l3 d12 l2, PS) |  | 76.5 | 83.1 | 
83 | TTGATGATGCGGTTGTAG (sugars l3 d13 l2, PS) |  | 70.7 | 77.8 | 
84 | TTGATTTGTCAGCAGG (sugars kkdddddddddkekek, PS) |  |  |  | 23% and 22%
85 | TTGGTTCGTCAGCCAG (sugars l1 d12 l3, PS) |  | 49.1 | 65 | 
86 | TTGTATCTTGTTGAGC (sugars k3 d10 k3, PS) |  |  |  | 50%
87 | TTGTGCAATGGTGACA (sugars k3 d10 k3, PS) |  |  |  | 29%
88 | TTTCTAAACTCTCACCCTG (sugars l1 d15 l3, PS) |  | 26.4 | 25.1 | 
